Results taken from US8404844B2, “Perylene semiconductors and methods of preparation and use thereof” (BASF SE, priority 2008, dated 2013).
In brackets after ≈: the same amount, converted by molar mass.

Legend:
[1] = Cyclic voltammetry (reduction potential); assay type: physicochemical; conditions: 0.1 M THF/TBAPF6, under N2, bare Ag reference electrode, scan 60-150 mV/s
Method: Cyclic voltammetry experiments were conducted using an Epsilon single-channel […] and a BAS C3 cell stand (a one-compartment cell with a C disk working electrode, a bare Ag reference electrode, and a Pt wire counter electrode). Appropriate precautions were taken to eliminate water and oxygen during measurement. All measurements were performed under N2 by dissolving the compound (1-3 mg) in a 0.1 M THF/TBAPF6 solutions with scanning rates between 60-150 mV/s. When the voltammograms are (quasi)reversible, it is possible to extract formal potentials (E^1/2) as the midpoints between peak potentials for the forward and reverse scans.
Table 1 summarizes certain physical and electrical properties of some compounds of the present teachings, including Ered values obtained from the cyclic voltammetry experiments. N,N′-Bis(4-n-octyl)-1,7-dicyanoperylene-3,4:9,10-bis(dicarboximide) (PDI8-CN2), N,N′-bis[(3S)-3,7-dimethyl-6-octenyl]-1,7-dicyanoperylene-3,4:9,10-bis(dicarboximide) (PDICitr-CN2), N,N′-bis(2-ethylhexyl)-1,7-dicyanoperylene-3,4:9,10-bis(dicarboximide) (PDI2EH-CN2), and N,N′-bis(2-methylhexyl)-1,7-dicyanoperylene-3,4:9,10-bis(dicarboximide) (PDI2MH-CN2) were included as comparative representative compounds.

[2] = Solubility in organic solvents; assay type: physicochemical; conditions: for Solubility CHCl3: chloroform; for Solubility DCB: dichlorobenzene (DCB); for Solubility compared to similar compounds: compared to PDI8-CN2, PDI2EH-CN2, PDICitr-CN2 and PDI2MH-CN2
Method: As certain embodiments of the compounds disclosed herein can be soluble in common solvents, the present teachings can offer processing advantages in fabricating electrical devices such as thin film semiconductors, field-effect devices, organic light emitting diodes (OLEDs), organic photovoltaics, photodetectors, capacitors, and sensors. As used herein, a compound can be considered soluble in a solvent when at least 1 mg of the compound can be dissolved in 1 mL of the solvent. Examples of common organic solvents include petroleum ethers; acetonitrile; aromatic hydrocarbons such as benzene, toluene, xylene, and mesitylene; ketones such as acetone and methyl ethyl ketone; ethers such as tetrahydrofuran, dioxane, bis(2-methoxyethyl)ether, diethyl ether, di-isopropyl ether, and t-butyl methyl ether; alcohols such as methanol, ethanol, butanol, and isopropyl alcohol; aliphatic hydrocarbons such as hexanes; acetates such as methyl acetate, ethyl acetate, methyl formate, ethyl formate, isopropyl acetate, and butyl acetate; amides such as dimethylformamide and dimethylacetamide; sulfoxides such as dimethylsulfoxide; halogenated aliphatic and aromatic hydrocarbons such as dichloromethane, chloroform, ethylene chloride, chlorobenzene, dichlorobenzene, and trichlorobenzene; and cyclic solvents such as cyclopentanone, cyclohexanone, and 2-methypyrrolidone. Examples of common inorganic solvents include water and ionic liquids.
Greater solubilities (2-10 times) can be achieved using warm solvents.

Row | Compound | Ered [1] [V] | Solubility CHCl3 [2] [mg/mL] | Solubility DCB [2] [mg/mL] | Solubility compared to similar compounds [2] | Solubility (DCB, 70° C.) [2] [mg/mL]
1 | CCCC(C)N1C(=O)c2ccc3c4c(Br)cc5c6c(ccc(c7c(Br)cc(c2c37)C1=O)c64)C(=O)N(C(C)CCC)C5=O (stereo not shown) [PDI1MB-Br2, N,N′-bis(1-methylbutyl)-1,7-dibromoperylene-3,4:9,10-bis(dicarboximide)] | −0.39 | – | – | – | –
2 | CCCCC(CC)CN1C(=O)c2ccc3c4c(C#N)cc5c6c(ccc(c7c(C#N)cc(c2c37)C1=O)c64)C(=O)N(CC(CC)CCCC)C5=O (stereo not shown) [PDI2EH-CN2, N,N′-bis(2-ethylhexyl)-1,7-dicyanoperylene-3,4:9,10-bis(dicarboximide), reference compound] | −0.130 | 5 (≈ 7.52 mM) | 5 (≈ 7.52 mM) | – | –
3 | CCC(CC)N1C(=O)c2ccc3c4c(Br)cc5c6c(ccc(c7c(Br)cc(c2c37)C1=O)c64)C(=O)N(C(CC)CC)C5=O [PDI1EPr-Br2, N,N′-bis(1-ethylpropyl)-1,7-dibromoperylene-3,4:9,10-bis(dicarboximide)] | −0.38 | – | – | – | –
4 | CCCCCCCCN1C(=O)c2ccc3c4c(C#N)cc5c6c(ccc(c7c(C#N)cc(c2c37)C1=O)c64)C(=O)N(CCCCCCCC)C5=O [PDI8-CN2, N,N′-Bis(4-n-octyl)-1,7-dicyanoperylene-3,4:9,10-bis(dicarboximide), reference compound] | −0.150 | 4 (≈ 6.02 mM) | 4 (≈ 6.02 mM) | – | –
5 | CCC(C)N1C(=O)c2ccc3c4c(C#N)cc5c6c(ccc(c7c(C#N)cc(c2c37)C1=O)c64)C(=O)N(C(C)CC)C5=O (stereo not shown) [PDI1MPr-CN2, N,N′-bis(1-methylpropyl)-1,7-dicyanoperylene-3,4:9,10-bis(dicarboximide)] | −0.091 | – | 8 (≈ 14.5 mM) | – | –
6 | CCC(CC)N1C(=O)c2ccc3c4c(C#N)cc5c6c(ccc(c7c(C#N)cc(c2c37)C1=O)c64)C(=O)N(C(CC)CC)C5=O [PDI1EPr-CN2, N,N′-bis(1-ethylpropyl)-1,7-dicyanoperylene-3,4:9,10-bis(dicarboximide)] | −0.101 | – | 10 (≈ 17.2 mM) | – | –
7 | CCCC(C)N1C(=O)c2ccc3c4c(C#N)cc5c6c(ccc(c7c(C#N)cc(c2c37)C1=O)c64)C(=O)N(C(C)CCC)C5=O (stereo not shown) [PDI1MB-CN2, N,N′-bis(1-methylbutyl)-1,7-dicyanoperylene-3,4:9,10-bis(dicarboximide)] | −0.083 | – | 5 (≈ 8.61 mM) | – | –
8 | CCCCCC(C)N1C(=O)c2ccc3c4c(Br)cc5c6c(ccc(c7c(Br)cc(c2c37)C1=O)c64)C(=O)N(C(C)CCCCC)C5=O (stereo not shown) [PDI1MH-Br2, N,N′-bis(1-methylhexyl)-1,7-dibromoperylene-3,4:9,10-bis(dicarboximide)] | −0.38 | – | – | – | –
9 | CC(C)=CCC[C@H](C)CCN1C(=O)c2ccc3c4c(C#N)cc5c6c(ccc(c7c(C#N)cc(c2c37)C1=O)c64)C(=O)N(CC[C@@H](C)CCC=C(C)C)C5=O [PDICitr-CN2, N,N′-bis[(3S)-3,7-dimethyl-6-octenyl]-1,7-dicyanoperylene-3,4:9,10-bis(dicarboximide), reference compound] | −0.142 | – | 8 (≈ 11.2 mM) | – | –
10 | CCCCC(C)N1C(=O)c2ccc3c4c(Br)cc5c6c(ccc(c7c(Br)cc(c2c37)C1=O)c64)C(=O)N(C(C)CCCC)C5=O (stereo not shown) [PDI1MP-Br2, N,N′-bis(1-methylpentyl)-1,7-dibromoperylene-3,4:9,10-bis(dicarboximide)] | −0.41 | – | – | – | –
11 | CCCCCC(C)N1C(=O)c2ccc3c4c(C#N)cc5c6c(ccc(c7c(C#N)cc(c2c37)C1=O)c64)C(=O)N(C(C)CCCCC)C5=O (stereo not shown) [PDI1MH-CN2, N,N′-bis(1-methylhexyl)-1,7-dicyanoperylene-3,4:9,10-bis(dicarboximide)] | −0.094 | 54 (≈ 84.8 mM) | 52 (≈ 81.7 mM) | unexpected increase in solubility | –
12 | CCCC(CC)N1C(=O)c2ccc3c4c(Br)cc5c6c(ccc(c7c(Br)cc(c2c37)C1=O)c64)C(=O)N(C(CC)CCC)C5=O (stereo not shown) [PDI1EB-Br2, N,N′-bis(1-ethylbutyl)-1,7-dibromoperylene-3,4:9,10-bis(dicarboximide)] | −0.34 | – | – | – | –
13 | CC(C)CC(C)N1C(=O)c2ccc3c4c(Br)cc5c6c(ccc(c7c(Br)cc(c2c37)C1=O)c64)C(=O)N(C(C)CC(C)C)C5=O (stereo not shown) [PDI1M3MB-Br2, N,N′-bis(1,3-dimethylbutyl)-1,7-dibromoperylene-3,4:9,10-bis(dicarboximide)] | −0.39 | – | – | – | –
14 | CCCCC(C)N1C(=O)c2ccc3c4c(C#N)cc5c6c(ccc(c7c(C#N)cc(c2c37)C1=O)c64)C(=O)N(C(C)CCCC)C5=O (stereo not shown) [PDI1MP-CN2, N,N′-bis(1-methylpentyl)-1,7-dicyanoperylene-3,4:9,10-bis(dicarboximide)] | −0.071 | 43 (≈ 70.6 mM) | 40 (≈ 65.7 mM) | unexpected increase in solubility | 41.8 (≈ 68.7 mM)
15 | CC(C)CC(C)N1C(=O)c2ccc3c4c(C#N)cc5c6c(ccc(c7c(C#N)cc(c2c37)C1=O)c64)C(=O)N(C(C)CC(C)C)C5=O (stereo not shown) [PDI1M3MB-CN2, N,N′-bis(1,3-dimethylbutyl)-1,7-dicyanoperylene-3,4:9,10-bis(dicarboximide)] | −0.088 | 30 (≈ 49.3 mM) | 37 (≈ 60.8 mM) | unexpected increase in solubility | 37.1 (≈ 60.9 mM)
16 | CCCCC(C)CN1C(=O)c2ccc3c4c(C#N)cc5c6c(ccc(c7c(C#N)cc(c2c37)C1=O)c64)C(=O)N(CC(C)CCCC)C5=O (stereo not shown) [PDI2MH-CN2, N,N′-bis(2-methylhexyl)-1,7-dicyanoperylene-3,4:9,10-bis(dicarboximide), reference compound] | −0.120 | – | 5 (≈ 7.85 mM) | – | –
17 | CCC(C)N1C(=O)c2ccc3c4c(Br)cc5c6c(ccc(c7c(Br)cc(c2c37)C1=O)c64)C(=O)N(C(C)CC)C5=O (stereo not shown) [PDI1MPr-Br2, N,N′-bis(1-methylpropyl)-1,7-dibromoperylene-3,4:9,10-bis(dicarboximide)] | −0.40 | – | – | – | –
18 | CCCC(CC)N1C(=O)c2ccc3c4c(C#N)cc5c6c(ccc(c7c(C#N)cc(c2c37)C1=O)c64)C(=O)N(C(CC)CCC)C5=O (stereo not shown) [PDI1EB-CN2, N,N′-bis(1-ethylbutyl)-1,7-dicyanoperylene-3,4:9,10-bis(dicarboximide)] | −0.106 | 8 (≈ 13.1 mM) | 10 (≈ 16.4 mM) | – | –
